In patent US7820624B2, “Peptide ligands” (ICH Productions Limited, priority 2003, dated 2010):

Assays:
[1] = tested on: human monocyte-derived immature dendritic cells; type: cell-based; conditions: 100,000 viral particles/cell
Description: Ad5 particles with the DC-binding peptides incorporated into the HI loop of the fibre protein were produced essentially as described previously ^12. Complementary oligonucleotides encoding the peptide sequences SHVKLNS [SEQ. ID. NO.:29] (5′ CC GGAAGCCACGTGAAGCTGAACAGCG 3′ [SEQ. ID. NO.:58] and 5′ CC GGCGCTGTTCAGCTTCACGTG GCTT 3′[SEQ. ID. NO.:59]) or APSNSTA [SEQ. ID. NO.:15] (5′ CC GGAGCCCCCAGCAACAGCACCGCCG 3′ [SEQ. ID. NO.:61] and 5′ CC GGCGGCGGTGCTGTTGCTGGG GGCT 3′ [SEQ. ID. NO.:62]) were synthesized (Operon Technologies, Alameda Calif. U.S.A.). The oligo pairs were then kinased, annealed, and ligated into the unique BspE1 site of pDV137 ^12, an expression construct encoding an Ad5 fibre protein with a double point mutant (KO1) which blocks CAR binding and a linker/restriction site in the HI loop, to create pDV178 (SHVKLNS) and pDV179 (APSNSTA). Following sequence confirmation, the plasmids were used to trans-complement the fibre-deleted vector Ad5.GFP.δF^18 by transient transfection into 293 cells as described ^19. Viral particles were purified by freeze/thaw lysis and CsCl gradient centrifugation and dialyzed into 40 mM TRIS-pH 8.1/0.9% NaCl/10% glycerol and stored at −80° C. Virus was quantified by protein assay (BioRad, Hercules Calif., U.S.A.) against BSA standards and using the relation 1 μg viral protein=4×10^9 viral particles.
Retargeted adenoviruses carrying a peptide A or B were used for the transduction experiments described below. Wild type adenovirus type 5 and type 5 adenovirus having a KO1 fibre, all supplied by Dr Dan von Seggern, and as described in Nicklin 2001 Mol Ther 2001 Dec.; 4(6):534-42), were used as controls.
(§1) Day 6 dendritic cells (see Example 1(v) above), or mouse bone marrow derived dendritic cells or mouse Sca1+ve stem cells, see (i) and (ii) above, were plated at 5×10^4 cells per well in a 48 well plate in 500 μl complete medium and allowed to settle for 3 hours at 37° C. Transductions were carried out in complete media, with virus being added at 100,000 viral particles/cell for 24 hours. Cells were harvested by scraping, spun down at 650 g (2000 rpm) for 5 min, resuspended in 300 μl PBS, and kept on ice before analysis. Viral transduction as determined by percentage of GFP positive cells was measured by FACS analysis. To measure percentage viability, 10 μl of 7-amino-actinomycin D (7AAD; Sigma, Poole, Dorset) was added immediately prior to analysis. Viral transduction of macrophages was carried out at 10,000 particles/cell in medium containing 2.5% FCS. For other cell types, cells were seeded overnight at 5×10^4 cells per well in 24-well plates in the appropriate media. Adenovirus was added in OptiMEM at 10,000 viral particles/cell, 1 ml per well in triplicate and incubated for 24 h at 37° C. Cells were then washed twice in PBS, trypsinised, triplicate wells pooled, spun down at 350×g for 5 min and resuspended in 300 μl PBS before analysis by flow cytometry where cell viability was to be measured, 10 μl 7AAD was added just prior to analysis.
Cells were pooled from three separate transduction experiments for the calculation of results.

[2] = tested on: human monocyte-derived primary macrophages; experiment: Adenoviral transduction of primary macrophages; type: cell-based; conditions: 10,000 viral particles/cell in 2.5% serum
Method: as §1
10 mls of peripheral blood were diluted 1:1 with HBSS then layered on Lymphoprep (Nycomed), spun at 750 g for 30 min and purified […] were isolated from the interface. Excess Lymphoprep was removed by spinning cells down at 250 g for 10 min and any platelets present were removed by washing in HBSS twice, spinning the cells at 1200 rpm for 10 min each time. Monocytes were then isolated using MACs CD14 microbeads as described in the manufacturer's protocol. The mononuclear cells were plated into a […] flask in 10% FCS, RPMI for 1-2 hours (1 flask per 10 ml blood) before removing the supernatant and adding fresh 10% FCS, RPMI+10 ng/ml MCSF (macrophage colony stimulating factor). Half the medium was replaced with fresh 10% FCS, RPMI+MCSF (10 ng/ml) after 48 hours and the cells were used at day 6, harvesting by scraping the cells from the well.
Viral transduction was carried out at 10,000 particles/cell in medium containing 2.5% FCS. Viral transduction as determined by percentage of GFP positive cells was measured by FACS analysis. Cells were pooled from three separate transduction experiments for the calculation of results.

1HAEo- cells = experiment: Adenoviral transduction of 1HAEo- cells; type: cell-based, human; conditions: 10,000 particles per cell in OptiMEM; listed as peptide A
Method: as §1, with “For other cell types, cells were seeded overnight at 5×10^4 cells per well in 24-well plates in the appropriate media. Adenovirus was added in OptiMEM at 10,000 viral particles/cell, 1 ml per well in triplicate and incubated for 24 h at 37° C.” left out
For transduction of these other cell types, cells were seeded overnight at 5×10^4 cells per well in 24 well plates in the appropriate media. […] Where cell viability was to be measured, 10 μl 7-amino-actinomycin D (7AAD; Sigma, Poole, Dorset) was added just prior to analysis. […]

[3] = tested on: day 6 immature dendritic cells; experiment: Maturation of adenovirus-transduced dendritic cells in response to LPS (marker flow cytometry); type: cell-based, human; conditions: LPS 50 ng/ml; virus 100,000 particles per cell
Method: Day 6 immature dendritic cells were infected with retargeted Ad or Ad5 at 100,000 particles per cell in complete medium for 24 hours, with E. coli 026:B6 lipopolysaccharide (LPS) added following 3 hours incubation at a concentration of 50 ng/ml. As controls, dendritic cells were either incubated in complete medium for 24 hours or matured by the addition of LPS in complete medium for 24 hours, In all samples IL-4 and GM-CSF were present in the complete medium at 25 ng/ml and 100 ng/ml respectively. Cells were then phenotyped by staining as follows: a minimum of 5×10^4 cells in a volume of less than 2 ml medium were added to the recommended amount of antibody and incubated for 20 min on ice. 2 ml of ice-cold PBS was added before centrifugation at 300×g for 5 min at 4° C. The supernatant was flicked off and the pellet resuspended in 300 μl ice cold PBS. Cells from each sample were stained with antibodies to HLA-DR, CD40, CD80, CD83, CD86 and isotype matched control antibodies. Where cell viability was also measured, […] of 7AAD was added immediately prior to analysis. Cells were analysed by flow cytometry using a Epics XL (Beckman Coulter, High Wycombe, UK.) and the EXPO32 analysis software (Beckman Coulter).

SHVKLNS (Synthetic peptide binding to dendritic cells)
Transduction (% GFP positive cells), donor A ([1]; complete medium, 24 hours, donor A): 64.2% | Transduction (% GFP positive cells), donor B ([1]; complete medium, 24 hours, donor B): 78.9% | Percentage cell death, donor A ([1]; donor A, 7AAD): (12.0) % | Percentage cell death, donor B ([1]; donor B, 7AAD): (13.3) % | Transduction, % cells transduced ([2]; listed as A): 67.6% | Transduction, % cells transduced ([2]; listed as peptide A): 67.6% | Transduction, % cells transduced (1HAEo- cells): 82.9% | CD40 positive cells [3]: 15.6% | CD80 positive cells [3]: 16.5% | CD83 positive cells [3]: 24.6% | CD86 positive cells [3]: 98.4% | HLA-DR positive cells [3]: 58.1%
